We go through seven substances from US9518085B2, “Compounds and pharmaceutical combinations for the treatment of neurodegenerative and ischemic brain diseases” (CENTRO DE INGENIERÍA GENÉTICA Y BIOTECHNOLOGÍA, priority 2011, dated 2016).

No end group written: not given here.

Test [1] deals with brain I/R model in Mongolian gerbils. In words: Brain infarct volume in the bilateral ischemia-reperfusion (I/R) model, transient CCA occlusion. The class given is in vivo. The following applies: 24 h after 10 min CCA occlusion, PCB 750 μg/Kg ip, PCB-aa 3.375 mg/kg, alone or combined. The method, then: The animals were treated with saline solution or with an accumulative dose of the PCB-aa peptides (3.375 mg/kg of each one), by intraperitoneal route for 30 min, 3, 6 and 12 h after the ischemic event.
The effectiveness percentage of each treatment was calculated according to the following formula: effectiveness %=(1−Vi/VI/R)×100. Vi: infarct volume of the ischemic group treated with the corresponding product; VI/R: volume of the infarct of the ischemic group treated with saline solution.
The percentage of effectiveness was calculated as described in Example 3.
The animals were treated with a saline solution (through the intraperitoneal route) or with an accumulative dose of PCB (750 μg/Kg, by the intraperitoneal route), PCB-aa (peptide 4) 3.375 mg/kg, EPO (500 U/Kg, through the intraperitoneal route), asyaloEPO (200 U/Kg, through the nasal route) or with PCB/EPO or PCB-aa (peptide 4)/EPO, PCB/asyaloEPO and PCB-aa ([…])/asyaloEPO (maintaining the dose and the corresponding administration route) for 30 min, 3, 6 and 12 h after the ischemic event.
The evaluation of the therapeutic effect of the combinations and their independent components was carried out. The percentage of effectiveness of each treatment was calculated as described in Example 3.

Test [2] relates to hippocampus (C2, CA3, CA4 regions) of Mongolian gerbils, I/R model. Briefly: Morphometric evaluation, bilateral hippocampal cell count after transient CCA occlusion. The class given is in vivo. The note with it: 750 μg/Kg ip, GHRP-6 6.25 μg/kg ip, alone or combined; 30 min, 3, 6, 12 h after ischemic event. The method, then:
FIG. 8. Morphometric evaluation of the therapeutic effect with PCB-aa (peptide 3), the GHRP-6 peptide, or its combination in Mongolian gerbils submitted to transient (10 min) occlusion of CCA. A: representative images (4× magnification) of the left hippocampus of animals that underwent fake surgery (sham), or treated with saline solution, or with PCB-aa (peptide 3) and GHRP-6 (6.25 μg/kg, intraperitoneal route), or with PCB-aa (peptide 3)/GHRP-6 (maintaining the corresponding doses and administration routes) for 30 min, 3, 6 and 12 h after the ischemic event. B: bilateral cell count performed in the C2, CA3 and CA4 regions of both hippocampi for each experimental group. Different letters indicate significant differences with respect to the I/R+saline group, *p<0.05. The values presented in the graphs are means±MSE
The morphometric evaluations of the therapeutic treatment with PCB-aa (peptide 3), the GHRP-6 peptide or its combinations were tested in Mongolian gerbils submitted to transient (10 min) CCAs occlusion. Accumulative doses of PCB-aa (peptide 3) (750 μg/Kg, by intraperitoneal route), GHRP-6 (6.25 μg/kg, intraperitoneal route), or with PCB-aa (peptide 3)/GHRP-6 (maintaining the corresponding dose and administration route) for 30 min, 3, 6 and 12 h after the ischemic event were evaluated. The bilateral cell count was performed in the C2, CA3 and CA4 regions for each experimental group and it was expressed in percentage with respect to the sham (negative or fake surgery) group.

For a further test, the system named is PC12 cell line. In words: Neuroprotector effect against Sodium glutamate induced damage in PC12 cells (MTT cell viability). The class given is cell-based. The following applies: for cells protected from the damage: Sodium glutamate damage, PC12; for concentration needed to attain cell viability similar to C-Phyco: PC12, 24 h pretreatment, 4 h co-incubation with Sodium glutamate, MTT. The method, then:
FIG. 2. In vitro study of the neuroprotector effect of C-Phycocyanin (C-Phyco) (A) and of PCB and PCB-aa (B) against the Sodium glutamate (50 mM) induced damage in the neuronal line PC12. The symbols indicate the presence (+), absence (−) or concentrations of the respective compounds in the culture medium. Different letters indicate statistically significant difference, according to ANOVA followed by the Newman-Keuls multiple comparison test, p<0.05. The values presented in the graphs are the means±standard error of the mean (MSE).
PC12 cells (1.5×10^4 cells/well) were pretreated with C-Phyco (25, 50 μM) or PCB (0.5; 1; 5 μM) or PCB-aa (0.25; 1; 2 μM), during 24 h, and then submitted to co-incubation with […] Sodium glutamate together with the corresponding product (different doses) for 4 h.

The subject of test [3] is experimental autoinmune encephalomyelitis (EAE) model. In words: EAE model, prophylactic schedule, clinical index. The format is in vivo, C57BL6 mice. The note with it: PCB-aa 3.375 mg/Kg, PCB 750 μg/Kg, alone or combined. How it is done:
(§1) In the prophylactic schedule the treatment was performed 15 days before EAE induction and in the therapeutic schedule starting from the beginning of the clinical signs.

In another test the test system is EAE model. In words: EAE model, therapeutic schedule, clinical course (area under the curve). The note with it: PCB 750 μg/kg ip, PCB-aa 3.375 mg/kg ip daily 15 days, IFN-b 500 ng/Kg sc 6 doses, alone or combined. The format is in vivo, C57BL6 mice. How it is done: The percentage of effectiveness of each treatment was calculated according to the following formula: % of effectiveness=(1−ACi/ACEAE)×100. ACi: area under the curve of the group treated with the corresponding product; ACEAE: area under the curve of the EAE group.
as §1

Test [4] concerns culture of brain granulous cells. The following applies: 1-3 mg/mL, absence of potassium and serum for 24 h; cited from earlier work.
Test [5] has as its system model of brain damage in rats induced by kainic acid. The following applies: one 100 mg/kg dose; cited from earlier work.
For another test, the target named is T1, COX-2 (Homo sapiens, UniProt P35354).
T1 sequence (P35354 18-604): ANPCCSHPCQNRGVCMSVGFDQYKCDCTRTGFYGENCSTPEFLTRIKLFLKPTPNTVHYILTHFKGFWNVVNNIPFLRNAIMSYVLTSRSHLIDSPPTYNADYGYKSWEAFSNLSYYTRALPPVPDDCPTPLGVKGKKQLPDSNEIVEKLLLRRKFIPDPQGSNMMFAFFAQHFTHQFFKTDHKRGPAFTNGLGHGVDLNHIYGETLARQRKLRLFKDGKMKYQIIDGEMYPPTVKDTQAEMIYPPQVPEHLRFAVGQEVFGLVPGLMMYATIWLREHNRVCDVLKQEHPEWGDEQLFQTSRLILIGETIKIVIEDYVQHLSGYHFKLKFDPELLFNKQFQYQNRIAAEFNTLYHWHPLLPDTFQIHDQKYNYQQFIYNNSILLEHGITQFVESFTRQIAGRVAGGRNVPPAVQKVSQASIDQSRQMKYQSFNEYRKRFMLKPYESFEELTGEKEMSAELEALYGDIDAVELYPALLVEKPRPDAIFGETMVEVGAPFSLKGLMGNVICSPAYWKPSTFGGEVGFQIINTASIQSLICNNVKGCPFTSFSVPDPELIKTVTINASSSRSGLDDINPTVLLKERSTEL
The note with it: isolated enzyme; complete blood assay; cited from earlier work.

Test [6] relates to swollen paw models in mice and rats. The following applies: oral route, 100-200 mg/kg; cited from earlier work.
Where [7] appears, read: EPO 500 U/Kg ip, asyaloEPO 200 U/Kg nasal.
[8] abbreviates: IFN-a/IFN-b 500 ng/Kg sc, 30 min, 3, 6, 12 h after ischemic event.

In the case of “^82BLR^84 (Cys(phycocyanobilin)-Leu-Arg; listed as Spirulina platensis) [PCB-aa (peptide 4), chromogenic peptide of β-C-Phyco]”, the “effectiveness, reduction of brain infarct volume” value (from here on “effectiveness, reduction”) in test [1] (setting [7]) came out at 49.2%.
Turning to GHRP-6 [reference compound], in [2], the “effectiveness, bilateral hippocampal cell count” value turned out to be 36.1%.
Regarding “^84BAR^86 (Cys(phycocyanobilin)-Ala-Arg; listed as Spirulina platensis) [PCB-aa (peptide 2), chromogenic peptide of α-C-Phyco]”, the “effectiveness, reduction” value in test [1] (IL-2 100 ng/Kg sc) is recorded as 49.2%.
Regarding Phycocyanobilin [PCB], the “cells protected from the damage” value in the test with PC12 cell line (5 μM PCB) worked out at 100%. The “concentration needed to attain cell viability similar to C-Phyco” value with PC12 cell line is “lower concentrations”. Moreover, the “protective molar concentration, times lower than C-Phyco” value in the test with PC12 cell line (PC12, Sodium glutamate damage) was found to be 10 times. In addition, the “effectiveness, reduction” value in [1] (setting [7]) was 43.1%. Further, in [1] (setting [8]), the “effectiveness, reduction” value worked out at 43.1%. Besides, in [1] (IL-2 100 ng/Kg sc), the “effectiveness, reduction” value was 43.1%. Moreover, in test [3] (Table 1, IFN-a 500 ng/Kg), the “Clinical score (Mean ± SD)” value amounted to 1.37 ± 1.7, the “Days of the disease” value is 8.5 ± 0.1 days, the “Incidence (%)” value stood at 70% and the “Starting Day (Mean ± SD)” value was determined as 10.5 ± 0.5. Besides, in test [3] (Table 2, IFN-b 500 ng/Kg), the “Clinical score (Mean ± SD)” value is listed as 1.55 ± 0.3, the “Days of the disease” value came out at 7.3 ± 0.4 days, the “Incidence (%)” value is listed as 60% and the “Starting day (Mean ± DS)” value was 12.3 ± 0.1. For the same substance, the “% of effectiveness (area under the curve of clinical index)” value with EAE model was found to be 46.1%. In addition, in test [2], the “effectiveness, bilateral hippocampal cell count” value is listed as 35.8%.
For the substance “^79MAABLR^84 (MAAC(phycocyanobilin)LR; listed as Spirulina platensis) [PCB-aa (peptide 1), chromogenic peptide of β-C-Phyco]”, in the test on PC12 cell line, the “concentration needed to attain cell viability similar to C-Phyco” value is “even lower”. Further, the “effectiveness, reduction” value in [1] (setting [8]) is 49.2%. In test [3] (Table 1, IFN-a 500 ng/Kg), the “Clinical score (Mean ± SD)” value turned out to be 1.23 ± 1.1, the “Days of the disease” value was 7.2 ± 0.3 days, the “Incidence (%)” value is listed as 75% and the “Starting Day (Mean ± SD)” value stood at 9.5 ± 0.2. In test [3] (Table 2, IFN-b 500 ng/Kg), the “Clinical score (Mean ± SD)” value is on record as 1.23 ± 1.1, the “Days of the disease” value stood at 7.2 ± 0.3 days, the “Incidence (%)” value is reported as 70% and the “Starting day (Mean ± DS)” value was 9.5 ± 0.2.
C-Phycocyanin: the “cells protected from the damage” value in the test on PC12 cell line (50 μM C-Phyco) was “around 75%”. In addition, in test [4], the neuron death result is “prevents neuron death”. In addition, the “signs and alterations versus untreated control group” value in test [5] was “reduced the signs”. The COX-2 inhibition result at COX-2 was “inhibits COX-2”. Moreover, the edema entry in [6] was “able to reduce edemas”.
Take “^80AABLR^84 (AAC(phycocyanobilin)LR; listed as Spirulina platensis) [PCB-aa (peptide 3), chromogenic peptide of β-C-Phyco]”: in test [2], the “effectiveness, bilateral hippocampal cell count” value is reported as 35.8%.
